Measured values taken from patent US20190343801A1, “COMPOSITIONS AND METHODS FOR CONTROLLING NATURAL KILLER CELL ACTIVATION AND FUNCTION” (BAR ILAN UNIVERSITY, priority 2017, published 2019).
Counter-ions that a name gives are not always drawn.

Columns and labels:
[1] = test system: F-actin retrograde flow in YTS and pNK F-tractin GFP cells; assay: Live cell imaging and kymograph analysis of F-actin retrograde flow (ARF) in F-tractin GFP NK cells; assay type: cell-based; conditions: 25 μM Y-27, activating vs. inhibitory NKIS
Text: FIGS. […] In FIG. 5A, YTS F-tractin GFP cells were dropped over coverslips coated with anti-CD28 or anti-KIR1 antibodies, and imaged at 1 frame/sec through a single focal plane. […] Representative images are shown. Kymographs of F-actin dynamics were compiled along the contact site radius. […]
The y axis represents F-actin velocity (μm/sec), and the x axis—time from initial spreading (sec).
FIGS. 5E-5H. show analyses of NKIS area and ARF in the activating vs. inhibitory NKIS in the presence of Y-27632 (Y-27) inhibitor of myosin light chain (MLC) phosphorylation and/or JAS. […] NKIS area was determined using ImageJ. […]
Analyses of actin and SHP-1 dynamics were performed by preparing kymographs from live cell videos and tracing the movement of the fluorescently tagged proteins. […] Velocity over distance from the center was determined by calculating the velocity of the tracked protein based on the distance traversed to time between each two points on the trace, and noting the relative location from the center of the measured area. […] For each bin, average velocity and standard error were calculated. Average distance traversed over time was calculated by measuring the location of the trace, relative to its point of origin at each time point after the beginning of the trace. For each relative time point from the beginning of a trace, an average distance and standard error were calculated. […]

[2] = test system: YTS F-tractin GFP cells; assay: NKIS area of YTS F-tractin GFP cells spread over antibody-coated coverslips; assay type: cell-based; conditions: 25 μM Y-27 or 1 μM JAS; anti-CD28 or anti-KIR1
Experimental: FIGS. 5E-5H. show analyses of NKIS area and ARF in the activating vs. inhibitory NKIS in the presence of Y-27632 (Y-27) inhibitor of myosin light chain (MLC) phosphorylation and/or JAS. In FIG. 5E is live cell imaging of YTS-2DL1 cells expressing F-tractin GFP treated with 25 μM Y-27 (anti-CD28: n=6 movies; anti-KIR1: n=6 movies). […] In FIG. 5F are YTS F-tractin GFP cells treated with 25 μM Y-27 or left untreated. Cells were seeded over coverslips pre-coated with anti-CD28 or anti-KIR1 and allowed to spread at 37° C. for 10 min before fixation, and 1 μM JAS was added 5 min after initial spreading. NKIS area was determined using ImageJ. […]
Chambered cover glasses (LabTek) were cleaned by treatment with 1 M HCl, 70% ethanol for 30 min and dried at 60° C. for 30 min. […] The NK and target cells in the conjugates were distinguished based on fluorescence signal, in which the target cells expressed mCherry and the NK cells expressed various YFP, CFP or GFP tagged proteins. […] The relative fluorescence intensity of the proteins at the synapse was determined by measuring the ratio between fluorescence intensity at the NKIS relative to a non-NKIS site using ImageJ. […]

C[C@@H](N)C1CCC(C(=O)Nc2ccncc2)CC1 (stereo partly drawn) [Formula Y-27, 4-[(1R)-1-aminoethyl]-N N-4-pyridinyl-trans-cyclohexanecarboxamide, dihydrochloride]
F-actin flow [1]: complete arrest of F-actin flow | NKIS area / NK contact area [2]: significantly enlarged NKIS area
